# Reference: patent US9598365B2, “Method for synthesizing cycloalkanyl[b]indoles, cycloalkanyl[b]benzofurans, cycloalkanyl[b]benzothiophenes, compounds and methods of use” (Trustees of Dartmouth College, priority 2012, dated 2017)
# Where “and” joins values, the source holds several entries; their conditions need not be identical. Equal values may be shown once.
# Test system: hNCI-H716
# Experiment: hNCI-H716 GLP-1 secretion
# Type: cell-based
# Conditions: 2 μM; GLP-1 secretion, single point; read-out: Primary SP hNCI (% Stim.)
# Excerpt: Selected compounds of this invention were screened for K-Ras Wnt synthetic lethal, anti-angiogenic activity, Wnt pathway modulatory activity, insulin and GLP-1 secretion modulatory activity, GPR119 receptor agonist activity, mGlu2R antagonist activity, CGRP receptor antagonist activity, Apelin receptor agonist activity and hexokinase 2 inhibitory activity using the PD^2 and TD^2 Screening Panel (Eli Lilly & Company). See Lee, et al. (2011) J. Biomol. Screen. 16:588-602.
# (§1) In light of the above results, additional compounds (Table 7) were prepared and phenotypic assays were carried out using hNCI-H716 and mSTC-1 cell lines to monitor GLP-1 secretion (single point (SP) and concentration response curves (CRC)) (Table 8), as well as a secondary assay with pituitary cells (Table 9).
row,SMILES,activation at 2 µM [%]
1,CC1(C)c2c([nH]c3ccc(O)cc23)C2C=CC1C2 (stereo not shown) [Compound 11x],3.4
2,CC1(C)c2c([nH]c3ccc(C(F)(F)F)cc23)C2C=CC1C2 (stereo not shown) [Compound 11y],-0.4
3,Cc1ccc(C2CC(C)(C)c3c2[nH]c2ccc(C)cc32)cc1 (stereo not shown) [Compound 19d],0
4,c1ccc(C2CC3(CCCCC3)c3c2[nH]c2ccccc32)cc1 (stereo not shown) [Compound 19e],0
5,Cc1ccc(C2CC3(CCCCC3)c3c2[nH]c2ccc(C)cc32)cc1 (stereo not shown) [Compound 19g],0
6,Cc1ccc(C2CC(C)(C)c3c2[nH]c2ccccc32)cc1 (stereo not shown) [Compound 19h],0
7,CC(=O)Oc1ccc(C2CC3(CCCCC3)c3c2[nH]c2ccccc32)cc1 (stereo not shown) [Compound 19i],0
8,Cn1c2c(c3ccccc31)C1(CCCC1)CC2c1ccccc1 (stereo not shown) [Compound 19u],-0.8
9,COc1ccc(C2CC3(CCCC3)c3c2n(C)c2ccccc32)cc1 (stereo not shown) [Compound 19v],-2
10,Cc1ccc(C2CC3(CCCC3)c3c2n(C)c2ccccc32)cc1 (stereo not shown) [Compound 19w],-0.8
11,Cn1c2c(c3ccccc31)C1(CCCC1)CC2c1ccc2ccccc2c1 (stereo not shown) [Compound 19x],-3.1
12,CC1(C)C(=O)C[C@]23CCCC[C@]12Nc1ccccc13 [Compound 20],-0.2
13,O=C1C2CCC1[C@@]1(CCO)c3ccccc3N[C@@H]21 (stereo partly shown) [Compound 21],4.3
14,C[C@]12c3ccccc3N[C@H]1C1CCC2C1=O (stereo partly shown) [Compound 22],-1.5
15,CN1c2ccccc2[C@]2(C)C3CCC(C3=O)[C@H]12 (stereo partly shown) [Compound 23],6.4
16,O=C1C2CCC1[C@@]1(CCO)c3ccccc3N(Cc3ccccc3)[C@@H]21 (stereo partly shown) [Compound 24],1
17,CC1(C)C(=O)C[C@]23CCCC[C@]12N(Cc1ccccc1)c1ccccc13 [Compound 25],0.6
18,COC(=O)[C@@H]1CC[C@H](O)[C@@]2(C)c3ccccc3N(C)[C@@H]12 [Compound 26],1.4
19,O=C1OC2CCC1[C@]13CCN[C@]21Nc1ccccc13 (stereo partly shown) [Compound 27],1
20,O=C1OC2CCC1[C@]13CCO[C@]21Nc1ccccc13 (stereo partly shown) [Compound 28],1.2

# Same assay, conditions: 20 μM; GLP-1 secretion, single point; read-out: Primary SP hNCI (% Stim.)
row,SMILES,activation at 20 µM [%]
1,CC1(C)c2c([nH]c3ccc(O)cc23)C2C=CC1C2 (stereo not shown) [Compound 11x],-0.8
2,CC1(C)c2c([nH]c3ccc(C(F)(F)F)cc23)C2C=CC1C2 (stereo not shown) [Compound 11y],55.9
3,Cc1ccc(C2CC(C)(C)c3c2[nH]c2ccc(C)cc32)cc1 (stereo not shown) [Compound 19d],0
4,c1ccc(C2CC3(CCCCC3)c3c2[nH]c2ccccc32)cc1 (stereo not shown) [Compound 19e],0
5,Cc1ccc(C2CC3(CCCCC3)c3c2[nH]c2ccc(C)cc32)cc1 (stereo not shown) [Compound 19g],0
6,Cc1ccc(C2CC(C)(C)c3c2[nH]c2ccccc32)cc1 (stereo not shown) [Compound 19h],0
7,CC(=O)Oc1ccc(C2CC3(CCCCC3)c3c2[nH]c2ccccc32)cc1 (stereo not shown) [Compound 19i],23.4
8,Cn1c2c(c3ccccc31)C1(CCCC1)CC2c1ccccc1 (stereo not shown) [Compound 19u],-3.8
9,COc1ccc(C2CC3(CCCC3)c3c2n(C)c2ccccc32)cc1 (stereo not shown) [Compound 19v],-2.4
10,Cc1ccc(C2CC3(CCCC3)c3c2n(C)c2ccccc32)cc1 (stereo not shown) [Compound 19w],-1.9
11,Cn1c2c(c3ccccc31)C1(CCCC1)CC2c1ccc2ccccc2c1 (stereo not shown) [Compound 19x],-3.3
12,CC1(C)C(=O)C[C@]23CCCC[C@]12Nc1ccccc13 [Compound 20],-1.1
13,O=C1C2CCC1[C@@]1(CCO)c3ccccc3N[C@@H]21 (stereo partly shown) [Compound 21],3.4
14,C[C@]12c3ccccc3N[C@H]1C1CCC2C1=O (stereo partly shown) [Compound 22],-1.3
15,CN1c2ccccc2[C@]2(C)C3CCC(C3=O)[C@H]12 (stereo partly shown) [Compound 23],-1.1
16,O=C1C2CCC1[C@@]1(CCO)c3ccccc3N(Cc3ccccc3)[C@@H]21 (stereo partly shown) [Compound 24],4.6
17,CC1(C)C(=O)C[C@]23CCCC[C@]12N(Cc1ccccc1)c1ccccc13 [Compound 25],-1.1
18,COC(=O)[C@@H]1CC[C@H](O)[C@@]2(C)c3ccccc3N(C)[C@@H]12 [Compound 26],-1.3
19,O=C1OC2CCC1[C@]13CCN[C@]21Nc1ccccc13 (stereo partly shown) [Compound 27],0.4
20,O=C1OC2CCC1[C@]13CCO[C@]21Nc1ccccc13 (stereo partly shown) [Compound 28],4

# Same assay, conditions: GLP-1 secretion, concentration response curve; read-out: Primary CRC (EC50, μM) hNCI
row,SMILES,EC50 [µM]
1,CC1(C)c2c([nH]c3ccc(O)cc23)C2C=CC1C2 (stereo not shown) [Compound 11x],> 40
2,CC(=O)Oc1ccc(C2CC3(CCCCC3)c3c2[nH]c2ccccc32)cc1 (stereo not shown) [Compound 19i],> 40
3,CN1c2ccccc2[C@]2(C)C3CCC(C3=O)[C@H]12 (stereo partly shown) [Compound 23],> 40
4,O=C1C2CCC1[C@@]1(CCO)c3ccccc3N(Cc3ccccc3)[C@@H]21 (stereo partly shown) [Compound 24],> 40
5,CC1(C)C(=O)C[C@]23CCCC[C@]12N(Cc1ccccc1)c1ccccc13 [Compound 25],> 40

# Test system: mSTC-1
# Experiment: mSTC-1 GLP-1 secretion
# Type: cell-based
# Conditions: 2 μM, single point, read-out: Primary SP mSTC (% Stim.)
# Method: as §1
row,SMILES,activation at 2 µM [%]
1,Cc1ccc(C2CC(C)(C)c3c2[nH]c2ccc(C)cc32)cc1 (stereo not shown) [Compound 19d],10.3
2,c1ccc(C2CC3(CCCCC3)c3c2[nH]c2ccccc32)cc1 (stereo not shown) [Compound 19e],78.4
3,Cc1ccc(C2CC3(CCCCC3)c3c2[nH]c2ccc(C)cc32)cc1 (stereo not shown) [Compound 19g],34.9
4,Cc1ccc(C2CC(C)(C)c3c2[nH]c2ccccc32)cc1 (stereo not shown) [Compound 19h],93.2
5,CC(=O)Oc1ccc(C2CC3(CCCCC3)c3c2[nH]c2ccccc32)cc1 (stereo not shown) [Compound 19i],13.5
6,CC1(C)C(=O)C[C@]23CCCC[C@]12Nc1ccccc13 [Compound 20],-4.1
7,O=C1C2CCC1[C@@]1(CCO)c3ccccc3N[C@@H]21 (stereo partly shown) [Compound 21],-1
8,C[C@]12c3ccccc3N[C@H]1C1CCC2C1=O (stereo partly shown) [Compound 22],-1.8
9,CN1c2ccccc2[C@]2(C)C3CCC(C3=O)[C@H]12 (stereo partly shown) [Compound 23],6.9
10,O=C1C2CCC1[C@@]1(CCO)c3ccccc3N(Cc3ccccc3)[C@@H]21 (stereo partly shown) [Compound 24],-3.3
11,CC1(C)C(=O)C[C@]23CCCC[C@]12N(Cc1ccccc1)c1ccccc13 [Compound 25],78.5
12,COC(=O)[C@@H]1CC[C@H](O)[C@@]2(C)c3ccccc3N(C)[C@@H]12 [Compound 26],-2.4
13,O=C1OC2CCC1[C@]13CCN[C@]21Nc1ccccc13 (stereo partly shown) [Compound 27],-5.1
14,O=C1OC2CCC1[C@]13CCO[C@]21Nc1ccccc13 (stereo partly shown) [Compound 28],-2.4

# Same assay, conditions: 20 μM, single point, read-out: Primary SP mSTC (% Stim.)
row,SMILES,activation at 20 µM [%]
1,Cc1ccc(C2CC(C)(C)c3c2[nH]c2ccc(C)cc32)cc1 (stereo not shown) [Compound 19d],53.6
2,c1ccc(C2CC3(CCCCC3)c3c2[nH]c2ccccc32)cc1 (stereo not shown) [Compound 19e],109
3,Cc1ccc(C2CC3(CCCCC3)c3c2[nH]c2ccc(C)cc32)cc1 (stereo not shown) [Compound 19g],124
4,Cc1ccc(C2CC(C)(C)c3c2[nH]c2ccccc32)cc1 (stereo not shown) [Compound 19h],107
5,CC(=O)Oc1ccc(C2CC3(CCCCC3)c3c2[nH]c2ccccc32)cc1 (stereo not shown) [Compound 19i],104
6,CC1(C)C(=O)C[C@]23CCCC[C@]12Nc1ccccc13 [Compound 20],8.2
7,O=C1C2CCC1[C@@]1(CCO)c3ccccc3N[C@@H]21 (stereo partly shown) [Compound 21],-2.4
8,C[C@]12c3ccccc3N[C@H]1C1CCC2C1=O (stereo partly shown) [Compound 22],7.4
9,CN1c2ccccc2[C@]2(C)C3CCC(C3=O)[C@H]12 (stereo partly shown) [Compound 23],71.3
10,O=C1C2CCC1[C@@]1(CCO)c3ccccc3N(Cc3ccccc3)[C@@H]21 (stereo partly shown) [Compound 24],47.9
11,CC1(C)C(=O)C[C@]23CCCC[C@]12N(Cc1ccccc1)c1ccccc13 [Compound 25],51.1
12,COC(=O)[C@@H]1CC[C@H](O)[C@@]2(C)c3ccccc3N(C)[C@@H]12 [Compound 26],-3.1
13,O=C1OC2CCC1[C@]13CCN[C@]21Nc1ccccc13 (stereo partly shown) [Compound 27],-3.9
14,O=C1OC2CCC1[C@]13CCO[C@]21Nc1ccccc13 (stereo partly shown) [Compound 28],4.4

# Same assay, conditions: concentration response curve, read-out: Primary CRC (EC50, μM) mSTC
row,SMILES,EC50
1,CC1(C)c2c([nH]c3ccc(O)cc23)C2C=CC1C2 (stereo not shown) [Compound 11x],> 40 µM
2,CC1(C)c2c([nH]c3ccc(C(F)(F)F)cc23)C2C=CC1C2 (stereo not shown) [Compound 11y],10.4 µM and 5.88 µM
3,CC(=O)Oc1ccc(C2CC3(CCCCC3)c3c2[nH]c2ccccc32)cc1 (stereo not shown) [Compound 19i],> 40 µM
4,CN1c2ccccc2[C@]2(C)C3CCC(C3=O)[C@H]12 (stereo partly shown) [Compound 23],6.18 µM
5,O=C1C2CCC1[C@@]1(CCO)c3ccccc3N(Cc3ccccc3)[C@@H]21 (stereo partly shown) [Compound 24],15.2 µM and 13.5 µM
6,CC1(C)C(=O)C[C@]23CCCC[C@]12N(Cc1ccccc1)c1ccccc13 [Compound 25],0.2 µM

# Test system: mSTC-1
# Experiment: mSTC LDH secretion
# Type: cell-based
# Conditions: read-out: Primary CRC (EC50, μM) mSTC LDH
# Method: as §1
row,SMILES,EC50 [µM]
1,CN1c2ccccc2[C@]2(C)C3CCC(C3=O)[C@H]12 (stereo partly shown) [Compound 23],> 40
2,O=C1C2CCC1[C@@]1(CCO)c3ccccc3N(Cc3ccccc3)[C@@H]21 (stereo partly shown) [Compound 24],> 40
3,CC1(C)C(=O)C[C@]23CCCC[C@]12N(Cc1ccccc1)c1ccccc13 [Compound 25],> 40

# Test system: hNCI-H716
# Experiment: hNCI basal LDH secretion
# Type: cell-based
# Conditions: read-out: Primary CRC (EC50, μM) hNCI Basal
# Method: as §1
row,SMILES,EC50 [µM]
1,CN1c2ccccc2[C@]2(C)C3CCC(C3=O)[C@H]12 (stereo partly shown) [Compound 23],> 40
2,O=C1C2CCC1[C@@]1(CCO)c3ccccc3N(Cc3ccccc3)[C@@H]21 (stereo partly shown) [Compound 24],> 40
3,CC1(C)C(=O)C[C@]23CCCC[C@]12N(Cc1ccccc1)c1ccccc13 [Compound 25],> 40
